Experimental data from patent publication US20110212891A1 (MSD K.K., priority 2008, published 2011).

molecular target: T1, Human DGAT1 (Homo sapiens, UniProt O75907); test: DGAT1 Inhibitory Activity Test ([14C]-oleoyl-CoA, DGAT1-expressed yeast membrane fraction); format: biochemical; settings: Table 5, room temperature, 30 minutes
T1 construct: made in house; host or cells: Pichia pastoris (printed 'Pichia pastris'), vector pPICZA; the membrane fraction served as enzyme source
T1 sequence (O75907 1-488): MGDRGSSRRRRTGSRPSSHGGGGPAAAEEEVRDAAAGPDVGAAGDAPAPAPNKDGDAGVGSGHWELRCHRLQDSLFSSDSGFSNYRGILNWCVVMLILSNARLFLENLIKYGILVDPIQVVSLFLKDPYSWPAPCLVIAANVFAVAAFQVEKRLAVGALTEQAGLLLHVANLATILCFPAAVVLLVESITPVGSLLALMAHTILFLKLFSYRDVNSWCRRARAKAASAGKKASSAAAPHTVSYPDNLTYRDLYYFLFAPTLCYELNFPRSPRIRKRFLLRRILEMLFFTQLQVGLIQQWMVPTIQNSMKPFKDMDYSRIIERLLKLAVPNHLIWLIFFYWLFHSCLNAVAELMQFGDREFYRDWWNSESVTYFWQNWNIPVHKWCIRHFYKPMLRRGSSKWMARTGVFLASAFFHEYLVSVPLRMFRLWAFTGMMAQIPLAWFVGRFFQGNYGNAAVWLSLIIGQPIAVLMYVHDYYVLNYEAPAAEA
Procedure: Human DGAT1 genes were amplified by PCR using primers described below from human cDNA library (Clontech).
The amplified human DGAT1 genes were introduced into a yeast expression vector pPICZA (Invitrogen). The resultant expression plasmid was introduced into a yeast (Pichia pastris) by electroporation to produce a recombinant yeast. The recombination yeast was cultured in the presence of 0,5% methanol for 72 hours, and the cells were crushed using glass beads in 10 mM Tris pH 7.5, 250 mM sucrose and 1 mM EDTA, followed by adjusting the membrane fraction by centrifugation to use the adjusted membrane fraction as an enzyme source.
To the reaction liquid having the following composition: 100 mM Tris pH 7.5, 100 mM MgCl2, 100 mM sucrose, 40 μM dioelin, 15 μm [^14C]-oleoyl-CoA, 0.25 μg of test substance, DGAT1-expressed yeast membrane fraction, was added, and the mixture having a volume of 100 μl was incubated at room temperature for 30 minutes. To the reaction liquid, 100 μl of 2-propanol/heptan/H2O (80:20:2) was added, the mixture was stirred well, followed by adding 200 μl of heptane and further stirring the mixture. After centrifugation, the heptane layer was collected, ethanol/0.1N NaOH/H2O (50:5:45) was added, the mixture was thus stirred, followed by recentrifuging the mixture and collecting the heptane layer. After exsiccation of the obtained heptane layer, 100 μl of Microscint 0 (PerkinElmer) was added, and the radioactivity was measured with a liquid scintillation counter. The inhibitory activity was calculated from the following formula:
Inhibition rate=100−(radioactivity in case of addition of test compound−background)/(radioactivity in case of addition of no test compound−background)×100
wherein the background means the radioactivity in case of addition of no membrane fraction.

| IC50 [nM] | Compound |
| --- | --- |
| 189 | CC(C)(C)OC(=O)NC1(C(=O)NC2CCc3ccccc3N(Cc3ccc(OC(F)(F)F)cc3)C2=O)CCC1 (single isomer, unassigned) [Example 46 Enantiomer A, tert-butyl{1-[({2-oxo-1-[4-(trifluoromethoxy)benzyl]-2,3,4,5-tetrahydro-1H-1-benzazepin-3-yl}amino)carbonyl]cyclobutyl}carbamate] |
| 858 | O=C1C(NC(=O)C2(NC(=O)C3(C(F)(F)F)CC3)CC2)CCc2cc(OC(F)(F)F)ccc2N1Cc1cc(C(F)(F)F)cc(C(F)(F)F)c1 (single isomer, unassigned) [Example 41 Enantiomer B, N-[1-({[1-[3,5-bis(trifluoromethyl)benzyl]-2-oxo-7-(trifluoromethoxy)-2,3,4,5-tetrahydro-1H-1-benzazepin-3-yl]amino}carbonyl)cyclopropyl]-1-(trifluoromethyl)cyclopropane carboxyamide] |
| 137 | O=C1C(NC(=O)C2(NC(=O)C3(C(F)(F)F)CC3)CC2)CCc2cc(OC(F)(F)F)ccc2N1Cc1cc(C(F)(F)F)cc(C(F)(F)F)c1 (single isomer, unassigned) [Example 41 Enantiomer A, N-[1-({[1-[3,5-bis(trifluoromethyl)benzyl]-2-oxo-7-(trifluoromethoxy)-2,3,4,5-tetrahydro-1H-1-benzazepin-3-yl]amino}carbonyl)cyclopropyl]-1-(trifluoromethyl)cyclopropane carboxyamide] |
| 24 | CC(C)(C)OC(=O)NC1(C(=O)N[C@H]2CC(=O)c3ccccc3N(Cc3ccc(-c4ccccc4)cc3)C2=O)CC1 [Example 21] |
| 153 | CC(C)(C)OC(=O)NC1(C(=O)NC2CCc3ccccc3N(Cc3ccc(OC(F)(F)F)cc3)C2=O)CCCC1 (single isomer, unassigned) [Example 47 Enantiomer A] |
| 14 | CC(C)(C)OC(=O)NC1(C(=O)NC2CCc3ccccc3N(Cc3ccc(OC(F)(F)F)cc3)C2=O)CCC1 (single isomer, unassigned) [Example 46 Enantiomer B, tert-butyl{1-[({2-oxo-1-[4-(trifluoromethoxy)benzyl]-2,3,4,5-tetrahydro-1H-1-benzazepin-3-yl}amino)carbonyl]cyclobutyl}carbamate] |
| 21 | CC(C)(C)OC(=O)NC1(C(=O)NC2CCc3ccccc3N(Cc3ccc(OC(F)(F)F)cc3)C2=O)CCCC1 (single isomer, unassigned) [Example 47 Enantiomer B] |

| Compound | IC50 [nM] |
| --- | --- |
| O=C(NC1(C(=O)N[C@@H]2CC(=O)c3ccccc3N(Cc3cc(C(F)(F)F)cc(C(F)(F)F)c3)C2=O)CC1)c1ccc(F)c(F)n1 [Example 8] | 85 |

same assay, conditions: Table 6, room temperature, 30 minutes

| IC50 [nM] | Compound |
| --- | --- |
| 77 | O=C(NC1(C(=O)N[C@@H]2CC(=O)c3ccccc3N(Cc3cc(C(F)(F)F)cc(C(F)(F)F)c3)C2=O)CCC1)c1ccc(F)cc1 [Example 53, N-{1-[({(3R)-1-[3,5-bis(trifluoromethyl)benzyl]-2,5-dioxo-2,3,4,5-tetrahydro-1H-1-benzazepin-3-yl}amino)carbonyl]cyclobutyl}-4-fluorobenzamide] |
| 253 | O=C(NC1(C(=O)N[C@@H]2CC(=O)c3ccccc3N(Cc3cc(C(F)(F)F)cc(C(F)(F)F)c3)C2=O)CCC1)c1nccs1 [Example 52, N-{1-[({(3R)-1-[3,5-bis(trifluoromethyl)benzyl]-2,5-dioxo-2,3,4,5-tetrahydro-1H-1-benzazepin-3-yl}amino)carbonyl]cyclobutyl}-1,3-thiazole-2-carboxamide] |
| 41 | CC(C)(C)OC(=O)NC1(C(=O)N[C@@H]2CC(=O)c3ccccc3N(Cc3cc(C(F)(F)F)cc(C(F)(F)F)c3)C2=O)CCC1 [Example 51, tert-butyl{1-[({(3R)-1-[3,5-bis(trifluoromethyl)benzyl]-2,5-dioxo-2,3,4,5-tetrahydro-1H-1-benzazepin-3-yl}amino)carbonyl]cyclobutyl}carbamate] |
| 65 | O=C(NC1(C(=O)N[C@@H]2CC(=O)c3ccccc3N(Cc3cc(C(F)(F)F)cc(C(F)(F)F)c3)C2=O)CC1)c1nccs1 [Example 50, N-{1-[({(3R)-1-[3,5-bis(trifluoromethyl)benzyl]-2,5-dioxo-2,3,4,5-tetrahydro-1H-1-benzazepin-3-yl}amino)carbonyl}cyclopropyl}-1,3-thiazole-2-carboxamide] |
